For one experiment, the target named is MCL-1 (Homo sapiens, UniProt Q07820). As to the kind of experiment: Protein-protein interaction assay MCL-1/Noxa BH3 peptide (MCL-1 assay), TR-FRET. The class given is binding. To be noted: MBP-MCL-1 / Noxa BH3-derived peptide, median. In outline: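 Steady-state competition, MCL-1/Noxa BH3, TR-FRET readout; 1 nM MBP-MCL-1, 11-point dose series 0.1 nM–20 μM; overnight 4 °C equilibration; 4-parameter IC50.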
Background: In TR-FRET formats the signal depends on donor and acceptor labels being close together.

For another experiment, the target named is T1, BCL-2 (Homo sapiens, UniProt P10415).
T1 construct: BCL-2 (amino acids 1-211, C-terminal fused to a hexahistidine (6×His) tag); purchased BPS Bioscience (San Diego, Calif., USA); host or cells: E. coli
As to the kind of experiment: Protein-protein interaction assay BCL-2/Bad BH3 peptide (BCL-2 assay), TR-FRET. The class given is binding. To be noted: His-BCL-2 / Bad BH3-derived peptide, median.

The next experiment concerns SUDHL10. As to the kind of experiment: Induction of caspase-3/7 activity (Caspase-Glo 3/7), SUDHL10. The class given is cell-based. To be noted: caspase-3/7 induction, SUDHL10 cells, 3 h treatment; median. In outline: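 A 3 h, 37 °C compound incubation precedes the Caspase-Glo 3/7 read. After subtracting medium-only signal, EC50s are fitted against the reference compound's maximal caspase induction.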

From patent publication US10981932B2, “Macrocyclic indole derivatives” (Bayer Aktiengesellschaft, priority 2016, dated 2021) come the findings set out here.

Counter-ions that a name gives are not always drawn. Where only a bound is given, the exact number is not on record here.

T1 sequence (P10415 1-211): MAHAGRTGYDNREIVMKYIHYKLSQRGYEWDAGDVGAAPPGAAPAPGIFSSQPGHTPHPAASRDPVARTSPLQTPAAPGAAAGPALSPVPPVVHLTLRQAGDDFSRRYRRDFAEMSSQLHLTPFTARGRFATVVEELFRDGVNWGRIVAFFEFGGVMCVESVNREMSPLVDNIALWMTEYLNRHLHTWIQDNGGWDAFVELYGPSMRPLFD
Chain of MCL-1 (Q07820 whole entry): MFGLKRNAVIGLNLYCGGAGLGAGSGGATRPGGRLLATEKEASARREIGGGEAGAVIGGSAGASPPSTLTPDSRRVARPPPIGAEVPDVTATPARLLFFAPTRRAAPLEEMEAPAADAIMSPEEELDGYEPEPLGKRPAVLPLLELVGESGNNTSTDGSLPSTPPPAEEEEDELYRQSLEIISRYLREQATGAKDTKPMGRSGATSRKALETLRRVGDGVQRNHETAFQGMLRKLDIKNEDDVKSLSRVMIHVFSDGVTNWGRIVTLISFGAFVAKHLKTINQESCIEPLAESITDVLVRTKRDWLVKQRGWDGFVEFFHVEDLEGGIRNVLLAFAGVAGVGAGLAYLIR

What is called IC50 is the midpoint of a concentration-inhibition curve. Low values mean higher potency, high ones lower potency. One may read the EC50 as the concentration giving half of the maximal effect. A low value points to higher potency in that assay. As to `Cc1nn(C)c2c1-c1cccc3c(CCCOc4ccc(F)c5ccccc45)c(C(=O)O)n(c13)CCCCOC2` (single isomer, unassigned; enantiomer 2) [Example 023, 7-{3-[(4-fluoronaphthalen-1-yl)oxy]propyl}-1,3-dimethyl-1,10,11,12,13,15-hexahydropyrazolo[4′3′:9,10][1,6]oxazacycloundecino[8,7,6-hi]indole-8-carboxylic acid-N-ethylethanamine Salt (Enantiomer 2)], the results for the IC50 at MCL-1 and against BCL-2 were 0.00169 µM and over 20 µM, respectively. The same molecule had an EC50 with SUDHL10 of 7.46 µM.

On to `Cc1c2c(nn1CCN1CCOCC1)CN(C)CCCn1c(C(=O)O)c(CCCOc3cccc4ccccc34)c3cccc-2c31` (single isomer, unassigned; enantiomer 2) [Example 061, 7,11-dimethyl-10-[2-(morpholin-4-yl)ethyl]-1-[3-(naphthalen-1-yloxy)propyl]-4,5,6,7,8,10-hexahydropyrazolo[3′,4′:7,8][1,5]diazecino[9,10,1-hi]indole-2-carboxylic Acid (Enantiomer 2)], for which the IC50 at MCL-1 is 0.0322 µM; against BCL-2, over 20 µM. Also, in the experiment on SUDHL10, a half-maximal response (EC50) required 18.6 µM.

For the molecule `Cc1ccc2c(CCCOc3cccc4ccccc34)c(C(=O)O)n3c2c1-c1c(nn(C)c1C)CN(C)CCC3` (single isomer, unassigned; enantiomer 2) [Example 074, 7,10,11,12-tetramethyl-1-[3-(naphthalen-1-yloxy)propyl]-4,5,6,7,8,10-hexahydropyrazolo[3′,4′:7,8][1,5]diazecino[9,10,1-hi]indole-2-carboxylic Acid (Enantiomer 2)], the IC50 was 0.0269 µM against MCL-1 and over 20 µM against BCL-2. In the experiment on SUDHL10, this molecule gave an EC50 of over 33 µM.
